Data as given in ChEMBL document CHEMBL1250444, “Nitric oxide activates TRP channels by cysteine S-nitrosylation” (Nat Chem Biol, 2006).
Numbering of substitutions follows the chain as printed. The source made the active and inactive calls. The calls are words filed in the database; no cut-off is given here.

Experiments:
[1] = tested on: HEK293; assay: Activation of rat TRPV1 Cys616 mutant expressed in HEK cells assessed as increase in Ca2+ level from extracellular space at 10 uM; assay type: cell-based
[2] = molecular target: T1, Short transient receptor potential channel 5 (Homo sapiens) (UniProt Q9UL62); assay: Induction of S-nitrosylation of TRPC5 in HEK cells assessed as increase in Ca2+ level from extracellular space at 30 uM in presence of dithiothreitol; assay type: cell-based; settings: HEK293
T1 sequence (whole entry): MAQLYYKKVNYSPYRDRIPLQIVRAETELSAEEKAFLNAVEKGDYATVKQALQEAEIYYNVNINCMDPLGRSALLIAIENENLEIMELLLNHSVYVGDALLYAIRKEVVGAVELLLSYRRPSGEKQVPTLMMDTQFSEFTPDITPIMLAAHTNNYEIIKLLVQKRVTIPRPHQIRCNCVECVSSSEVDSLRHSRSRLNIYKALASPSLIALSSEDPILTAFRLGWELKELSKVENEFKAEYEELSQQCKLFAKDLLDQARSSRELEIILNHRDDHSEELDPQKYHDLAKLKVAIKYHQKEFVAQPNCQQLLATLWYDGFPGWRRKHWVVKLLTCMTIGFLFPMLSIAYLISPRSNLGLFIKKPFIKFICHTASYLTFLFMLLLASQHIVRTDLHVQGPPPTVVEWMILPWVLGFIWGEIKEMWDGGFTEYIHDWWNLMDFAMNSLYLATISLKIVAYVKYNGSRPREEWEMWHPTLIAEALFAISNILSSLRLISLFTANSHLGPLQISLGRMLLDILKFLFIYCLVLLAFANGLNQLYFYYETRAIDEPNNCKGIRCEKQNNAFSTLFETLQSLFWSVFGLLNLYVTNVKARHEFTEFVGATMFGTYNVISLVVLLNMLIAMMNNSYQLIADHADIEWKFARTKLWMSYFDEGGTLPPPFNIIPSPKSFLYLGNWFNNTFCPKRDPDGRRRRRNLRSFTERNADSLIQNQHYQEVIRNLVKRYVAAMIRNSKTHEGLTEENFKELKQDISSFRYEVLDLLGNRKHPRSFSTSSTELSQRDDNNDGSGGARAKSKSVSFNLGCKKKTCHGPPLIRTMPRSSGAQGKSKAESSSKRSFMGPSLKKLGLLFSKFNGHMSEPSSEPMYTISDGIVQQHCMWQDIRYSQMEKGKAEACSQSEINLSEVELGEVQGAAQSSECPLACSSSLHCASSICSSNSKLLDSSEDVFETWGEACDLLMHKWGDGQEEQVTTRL

[3] = tested on: T2, Short transient receptor potential channel 5 (Homo sapiens), Q9UL62 [C558S]; assay: Decrease in TRPC5 C558S mutant S-nitrosylation in HEK cells assessed as inhibition of incorporation of DTNB-2Bio at 30 uM relative to control; assay type: cell-based; settings: HEK293
T2 sequence (whole entry): T1 sequence (whole entry) with C558S

[4] = molecular target: T1, Short transient receptor potential channel 5 (Homo sapiens); assay: Activation of TRPC5 expressed in BAEC expressing dominant negative mutant of TRPC5 assessed as increase in Ca2+ level from extracellular space at 100 uM
[5] = molecular target: Transient receptor potential cation channel subfamily M member 2 (Homo sapiens) (UniProt O94759); assay: Induction of TRPM2 S-nitrosylation in HEK cells assessed as increase in Ca2+ level from extracellular space at 30 uM; assay type: cell-based; settings: HEK293
[6] = molecular target: Transient receptor potential cation channel subfamily V member 1 (Rattus norvegicus) (UniProt O35433); assay: Activation of rat TRPV1 expressed in HEK cells assessed as increase in Ca2+ level from extracellular space at 10 uM; assay type: cell-based; settings: HEK293
[7] = molecular target: T1, Short transient receptor potential channel 5 (Homo sapiens); assay: Induction of S-nitrosylation of TRPC5 in HEK cells assessed as increase in Ca2+ level from extracellular space at 30 uM; assay type: cell-based; settings: HEK293
[8] = molecular target: Transient receptor potential cation channel subfamily V member 4 (Homo sapiens) (UniProt Q9HBA0); assay: Activation of TRPV4 in HEK cells assessed as increase in Ca2+ level from extracellular space at 300 uM; assay type: cell-based; settings: HEK293
[9] = tested on: HEK293; assay: Induction of rat TRPV1 Cys621 mutant S-nitrosylation expressed in HEK cells assessed as increase in Ca2+ level from extracellular space at 0.1 to 1 mM; assay type: cell-based
[10] = molecular target: T1, Short transient receptor potential channel 5 (Homo sapiens); assay: Activation of TRPC5 expressed in BAEC expressing TRPC5 siRNA assessed as increase in Ca2+ level from extracellular space at 300 uM
[11] = molecular target: T1, Short transient receptor potential channel 5 (Homo sapiens); assay: Induction of S-nitrosylation of TRPC5 in HEK cells assessed as increase in Ca2+ level from extracellular space at 1 mM in presence of dithiothreitol; assay type: cell-based; settings: HEK293
[12] = molecular target: Transient receptor potential cation channel subfamily V member 1 (Rattus norvegicus) (UniProt O35433); assay: Activation of rat TRPV1 expressed in HEK cells assessed as increase in Ca2+ level from extracellular space at 300 uM; assay type: cell-based; settings: HEK293

Transient receptor potential cation channel subfamily V member 1 (Rattus norvegicus), sequence (O35433 whole entry): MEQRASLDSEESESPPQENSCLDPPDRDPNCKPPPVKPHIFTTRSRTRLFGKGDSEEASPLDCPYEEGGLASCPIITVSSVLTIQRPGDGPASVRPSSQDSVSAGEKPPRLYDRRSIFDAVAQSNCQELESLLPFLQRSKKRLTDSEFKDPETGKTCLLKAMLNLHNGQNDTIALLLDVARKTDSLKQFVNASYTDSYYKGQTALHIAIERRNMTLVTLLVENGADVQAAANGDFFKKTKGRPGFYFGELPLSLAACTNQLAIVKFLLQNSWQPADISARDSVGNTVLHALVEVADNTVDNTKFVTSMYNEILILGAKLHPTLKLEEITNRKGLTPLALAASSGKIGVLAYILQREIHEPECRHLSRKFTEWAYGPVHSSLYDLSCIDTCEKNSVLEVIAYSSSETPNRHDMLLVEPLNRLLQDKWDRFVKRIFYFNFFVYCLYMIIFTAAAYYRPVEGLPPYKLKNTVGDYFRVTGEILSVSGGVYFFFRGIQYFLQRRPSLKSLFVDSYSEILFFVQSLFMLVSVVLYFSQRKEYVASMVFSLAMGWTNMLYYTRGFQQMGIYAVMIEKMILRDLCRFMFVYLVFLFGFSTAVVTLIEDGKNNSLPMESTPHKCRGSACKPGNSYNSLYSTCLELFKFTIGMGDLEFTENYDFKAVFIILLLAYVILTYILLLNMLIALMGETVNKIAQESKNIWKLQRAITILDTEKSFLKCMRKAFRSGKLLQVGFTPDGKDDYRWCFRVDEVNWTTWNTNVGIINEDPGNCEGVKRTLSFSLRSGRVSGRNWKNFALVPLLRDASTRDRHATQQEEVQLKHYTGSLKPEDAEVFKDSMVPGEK
Transient receptor potential cation channel subfamily V member 4 (Homo sapiens), sequence (Q9HBA0 whole entry): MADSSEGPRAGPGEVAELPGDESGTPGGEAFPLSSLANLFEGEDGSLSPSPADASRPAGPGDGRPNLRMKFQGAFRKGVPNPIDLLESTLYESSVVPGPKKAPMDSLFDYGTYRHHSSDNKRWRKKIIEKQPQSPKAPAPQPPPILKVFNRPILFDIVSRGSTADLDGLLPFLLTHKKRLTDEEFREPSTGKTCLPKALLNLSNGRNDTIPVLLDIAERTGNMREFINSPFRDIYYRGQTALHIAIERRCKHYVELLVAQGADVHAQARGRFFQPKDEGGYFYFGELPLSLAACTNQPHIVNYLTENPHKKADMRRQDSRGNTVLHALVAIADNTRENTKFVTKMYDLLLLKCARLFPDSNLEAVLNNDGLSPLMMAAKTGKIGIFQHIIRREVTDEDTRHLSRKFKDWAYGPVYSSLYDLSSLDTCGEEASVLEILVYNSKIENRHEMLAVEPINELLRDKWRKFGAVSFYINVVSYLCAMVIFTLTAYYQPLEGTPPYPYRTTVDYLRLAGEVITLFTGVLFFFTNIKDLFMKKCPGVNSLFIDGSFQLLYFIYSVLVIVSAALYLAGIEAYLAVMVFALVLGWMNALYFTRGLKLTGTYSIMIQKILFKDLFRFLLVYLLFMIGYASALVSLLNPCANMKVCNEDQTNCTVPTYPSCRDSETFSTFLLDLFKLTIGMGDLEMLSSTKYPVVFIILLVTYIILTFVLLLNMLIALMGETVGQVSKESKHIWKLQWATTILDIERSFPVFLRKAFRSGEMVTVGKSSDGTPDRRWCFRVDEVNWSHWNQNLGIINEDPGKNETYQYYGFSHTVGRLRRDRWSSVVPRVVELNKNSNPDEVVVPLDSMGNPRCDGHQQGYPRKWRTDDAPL
Transient receptor potential cation channel subfamily M member 2 (Homo sapiens), sequence (O94759 whole entry): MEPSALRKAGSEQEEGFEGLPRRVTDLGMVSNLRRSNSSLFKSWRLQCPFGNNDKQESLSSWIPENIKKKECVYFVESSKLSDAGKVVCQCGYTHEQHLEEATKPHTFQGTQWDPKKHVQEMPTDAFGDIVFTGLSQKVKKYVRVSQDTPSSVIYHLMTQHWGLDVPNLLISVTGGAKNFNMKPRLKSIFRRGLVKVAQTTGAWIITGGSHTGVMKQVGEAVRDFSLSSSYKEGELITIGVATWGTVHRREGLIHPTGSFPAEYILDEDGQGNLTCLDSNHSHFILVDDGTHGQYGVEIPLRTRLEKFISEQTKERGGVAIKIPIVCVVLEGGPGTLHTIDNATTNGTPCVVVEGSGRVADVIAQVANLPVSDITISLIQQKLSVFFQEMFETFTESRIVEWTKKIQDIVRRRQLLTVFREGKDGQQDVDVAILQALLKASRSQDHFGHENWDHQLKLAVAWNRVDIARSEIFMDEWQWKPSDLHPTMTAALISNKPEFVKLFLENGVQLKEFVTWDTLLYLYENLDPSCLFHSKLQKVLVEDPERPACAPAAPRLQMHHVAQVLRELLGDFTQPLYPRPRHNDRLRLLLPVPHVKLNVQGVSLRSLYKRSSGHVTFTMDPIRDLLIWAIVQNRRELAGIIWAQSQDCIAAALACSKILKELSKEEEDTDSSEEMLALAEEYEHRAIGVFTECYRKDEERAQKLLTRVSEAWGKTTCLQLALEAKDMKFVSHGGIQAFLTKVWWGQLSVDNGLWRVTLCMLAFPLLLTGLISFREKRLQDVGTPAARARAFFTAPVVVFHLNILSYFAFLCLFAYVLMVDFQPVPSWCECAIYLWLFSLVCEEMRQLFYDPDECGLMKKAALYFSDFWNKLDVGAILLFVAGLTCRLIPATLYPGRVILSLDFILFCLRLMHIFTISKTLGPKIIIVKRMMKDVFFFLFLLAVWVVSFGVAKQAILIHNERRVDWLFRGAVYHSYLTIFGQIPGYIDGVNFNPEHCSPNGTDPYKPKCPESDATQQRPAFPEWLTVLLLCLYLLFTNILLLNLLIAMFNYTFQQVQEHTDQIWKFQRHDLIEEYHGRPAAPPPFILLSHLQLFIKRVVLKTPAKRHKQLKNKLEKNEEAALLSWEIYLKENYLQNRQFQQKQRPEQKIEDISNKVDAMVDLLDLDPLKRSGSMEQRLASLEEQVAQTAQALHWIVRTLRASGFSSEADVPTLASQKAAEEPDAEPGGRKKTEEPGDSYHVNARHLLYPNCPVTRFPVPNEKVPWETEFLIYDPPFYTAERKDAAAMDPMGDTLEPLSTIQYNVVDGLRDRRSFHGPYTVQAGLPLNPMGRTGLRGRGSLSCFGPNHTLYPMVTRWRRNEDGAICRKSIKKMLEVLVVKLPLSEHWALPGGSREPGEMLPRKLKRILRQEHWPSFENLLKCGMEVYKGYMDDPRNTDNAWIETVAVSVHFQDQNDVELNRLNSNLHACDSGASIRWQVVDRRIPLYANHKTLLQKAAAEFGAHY

| Activity [2] | Activity [3] | Activity [4] | Activity [5] | Activity [6] | Activity [7] | Activity [8] | Activity [10] | Activity [11] | Activity [12] | SMILES | Activity [1] | Activity [9] |
| --- | --- | --- | --- | --- | --- | --- | --- | --- | --- | --- | --- | --- |
| inactive | Active | inactive | inactive | Active | Active |  |  |  |  | O=[N+]([O-])c1ccc(SSc2ccc([N+](=O)[O-])cn2)nc1 | inactive |  |
|  |  |  |  |  |  | Active | inactive | inactive | Active | CC(=O)N[C@@H](C(=O)O)C(C)(C)SN=O (racemic) |  | inactive |
